Measurements reported in ChEMBL document CHEMBL1150495, “Balanced angiotensin II receptor antagonists. I. The effects of biphenyl ortho-substitution on AT1/AT2 affinities” (Bioorg Med Chem Lett, 1994).

What was measured:
[1] = test system: Rattus norvegicus; test: Effective dose to lower blood pressure by 30 mmHg in renal hypertensive rats by peroral administration; assay type: functional; conditions: po
[2] = target: T1, Type-2 angiotensin II receptor (Rattus norvegicus, UniProt P35351); test: Displacement of [125I]- Ang II from angiotensin II AT2 receptor in rat adrenal cortical microsomes; design: species or system Microsome
T1 sequence (P35351 whole entry): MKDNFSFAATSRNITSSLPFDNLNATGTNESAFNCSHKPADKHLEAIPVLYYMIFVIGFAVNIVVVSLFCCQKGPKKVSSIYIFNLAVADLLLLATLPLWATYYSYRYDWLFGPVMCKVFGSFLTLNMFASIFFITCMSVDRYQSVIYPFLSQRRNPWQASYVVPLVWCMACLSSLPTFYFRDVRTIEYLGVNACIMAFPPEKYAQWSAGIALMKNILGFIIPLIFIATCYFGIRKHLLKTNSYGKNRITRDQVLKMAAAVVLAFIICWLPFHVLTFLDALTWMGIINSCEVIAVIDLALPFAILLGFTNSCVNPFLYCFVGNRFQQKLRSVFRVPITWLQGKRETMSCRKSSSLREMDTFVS

[3] = test system: Rattus norvegicus; test: Reduction of blood pressure by 30 mmHg in renal hypertensive rats by intravenous administration; assay type: functional
[4] = target: T2, Angiotensin II receptor (AT-1) type-1 (Rattus norvegicus, UniProt P29089+P25095); test: Displacement of [125I]- Ang II from angiotensin II AT1 receptor in rat adrenal cortical microsomes; design: species or system Microsome
T2 sequence (P29089 whole entry): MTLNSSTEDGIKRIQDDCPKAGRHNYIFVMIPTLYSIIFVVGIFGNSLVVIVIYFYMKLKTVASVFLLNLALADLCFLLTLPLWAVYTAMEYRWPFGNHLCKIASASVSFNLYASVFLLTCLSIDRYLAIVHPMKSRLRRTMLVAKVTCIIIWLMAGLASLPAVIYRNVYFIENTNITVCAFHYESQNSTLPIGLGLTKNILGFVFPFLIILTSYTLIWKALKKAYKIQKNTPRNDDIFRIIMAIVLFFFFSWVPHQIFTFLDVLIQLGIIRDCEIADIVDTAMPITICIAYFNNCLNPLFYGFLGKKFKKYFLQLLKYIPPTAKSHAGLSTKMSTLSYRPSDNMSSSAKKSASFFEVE
T2 sequence (P25095 whole entry): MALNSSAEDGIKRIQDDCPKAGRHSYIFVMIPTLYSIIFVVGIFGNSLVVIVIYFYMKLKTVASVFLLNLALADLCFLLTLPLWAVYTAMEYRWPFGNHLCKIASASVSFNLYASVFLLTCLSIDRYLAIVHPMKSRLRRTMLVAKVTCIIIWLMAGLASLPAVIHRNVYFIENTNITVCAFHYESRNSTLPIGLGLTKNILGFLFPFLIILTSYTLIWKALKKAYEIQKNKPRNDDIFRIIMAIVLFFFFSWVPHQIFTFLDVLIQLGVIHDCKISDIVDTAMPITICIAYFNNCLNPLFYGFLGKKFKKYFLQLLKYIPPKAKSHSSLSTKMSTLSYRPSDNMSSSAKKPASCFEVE

[5] = test system: Rattus norvegicus; test: Duration required to lower blood pressure by 30 mmHg in renal hypertensive rats at a dose of 3.0 mg/kg; assay type: functional
[6] = target: Angiotensin II receptor (Homo sapiens) (UniProt P30556+P50052); test: Affinity towards angiotensin receptor was expressed as the ratio of Angiotensin II AT2 receptor over Angiotensin II AT1 receptor; assay type: protein assay
[7] = target: T1, Type-2 angiotensin II receptor; test: Compound was tested for the inhibition of angiotensin II AT2 receptor by displacement of [125I]- Ang II to rat adrenal cortical microsomes

Row | Compound | ED30 [1] [mg/kg] | IC50 [2] [µM] | ED30 [3] [mg/kg] | IC50 [4] [µM] | Duration [5] [h] | Ratio [6] | IC50 [7] [µM]
1 | CCCCOC(=O)NS(=O)(=O)c1ccccc1-c1ccc(Cn2c(CCC)nc(CC)c2C(=O)OC)c(C)c1 | 0.56 | 0.01 | 0.15 | 0.003 |  |  | 
2 | CCCCOC(=O)NS(=O)(=O)c1ccccc1-c1ccc(Cn2c(CCC)nc(CC)c2C(C)=O)c(F)c1 | 0.48 | 0.003 | 0.1 |  | >24 | 3 | 
3 | CCCCOC(=O)NS(=O)(=O)c1ccccc1-c1ccc(Cn2c(CCC)nc(CC)c2C=O)cc1 | 0.18 | 0.01 | 0.23 | 0.002 |  |  | 
4 | CCCc1nc(C(F)(F)C(F)(F)F)c(C(=O)O)n1Cc1ccc(-c2ccccc2-c2nn[nH]n2)cc1 |  | > 10 |  | 0.003 |  |  | 
5 | CCCc1nc(C(F)(F)C(F)(F)F)c(C(=O)O)n1Cc1ccc(-c2ccccc2-c2nn[nH]n2)cc1Br |  |  |  |  |  |  | 0.08
6 | CCCCOC(=O)NS(=O)(=O)c1ccccc1-c1ccc(Cn2c(CCC)nc(CC)c2C(=O)OC)c(Cl)c1 | 0.44 | 0.007 | 0.51 |  | >24 | 2.3 | 
7 | CCCCOC(=O)NS(=O)(=O)c1ccccc1-c1ccc(Cn2c(CCC)nc(CC)c2C=O)c(F)c1 | < 1 | 0.002 | 0.13 | 0.0007 |  |  | 
8 | CCCc1nc(CC)c(C=O)n1Cc1ccc(-c2ccccc2-c2nn[nH]n2)cc1Cl |  | 0.5 | 0.87 | 0.01 |  |  | 
9 | CCCCOC(=O)NS(=O)(=O)c1ccccc1-c1ccc(Cn2c(CCC)nc(CC)c2C(=O)OC)cc1 |  | 0.04 |  | 0.002 |  |  | 
10 | CCCCOC(=O)NS(=O)(=O)c1ccccc1-c1ccc(Cn2c(CCC)nc(CC)c2C(=O)OC)c([N+](=O)[O-])c1 |  | 0.02 |  | 0.007 |  |  | 
11 | CCCCOC(=O)NS(=O)(=O)c1ccccc1-c1ccc(Cn2c(CCC)nc(CC)c2C(=O)OC)c(F)c1 | < 0.3 | 0.004 | 0.11 | 0.0006 |  |  | 
12 | CCCc1nc(CC)c(C=O)n1Cc1ccc(-c2ccccc2-c2nn[nH]n2)cc1Br |  | 0.7 | 1.05 | 0.02 |  |  | 
13 | CCCNC(=O)NS(=O)(=O)c1ccccc1-c1ccc(Cn2c(CCC)nc(SC)c2C(=O)O)cc1 |  | 0.775 |  | 0.0003 |  |  | 
14 | CCCc1nc(CC)c(C=O)n1Cc1ccc(-c2ccccc2S(=O)(=O)NC(=O)c2ccccc2)cc1 |  | 0.5 |  | 0.0024 |  |  | 
15 | CCCCOC(=O)NS(=O)(=O)c1ccccc1-c1ccc(Cn2c(CCC)nc(CC)c2C(C)=O)c(C)c1 | 0.55 | 0.02 | 0.24 | 0.002 |  |  | 
16 | CCCc1nc(CC)c(C=O)n1Cc1ccc(-c2ccccc2-c2nn[nH]n2)cc1 |  | > 10 | 0.04 | 0.002 |  |  | 
17 | CCCCOC(=O)NS(=O)(=O)c1ccccc1-c1ccc(Cn2c(CCC)nc(CC)c2C(C)=O)c(Cl)c1 | 0.96 | 0.012 | 0.11 | 0.006 |  |  | 
18 | CCCc1nc(CC)c(C=O)n1Cc1ccc(-c2ccccc2-c2nn[nH]n2)cc1F |  | 3 | 0.17 | 0.007 |  |  | 
19 | CCCc1nc(CC)c(C(=O)OC)n1Cc1ccc(-c2ccccc2S(=O)(=O)NC(=O)OCCC(C)C)cc1F | 0.67 | 0.001 | 0.12 |  | >24 | 1 | 
20 | CCCCOC(=O)NS(=O)(=O)c1ccccc1-c1ccc(Cn2c(CCC)nc(CC)c2C=O)c(C)c1 | 0.86 | 0.009 | 0.23 | 0.003 |  |  | 
21 | CCCc1nc(CC)c(C=O)n1Cc1ccc(-c2ccccc2-c2nn[nH]n2)cc1C |  | 1 | 1.4 | 0.04 |  |  | 
22 | CCCCOC(=O)NS(=O)(=O)c1ccccc1-c1ccc(Cn2c(CCC)nc(CC)c2C(C)=O)cc1 | 0.25 | 0.08 | 0.26 | 0.002 |  |  | 
23 | CCCCOC(=O)NS(=O)(=O)c1ccccc1-c1ccc(Cn2c(CCC)nc(CC)c2C(=O)OC)c(Br)c1 |  | 0.02 |  | 0.002 |  |  | 
